In ChEMBL document CHEMBL6103628, “Structural Optimization of Covalent Inhibitors for Deubiquitinase ChlaDUB1 of Chlamydia trachomatis as Antibiotic Agents” (J Med Chem, 2025):
Activity calls are given as the source filed them. The calls are words filed in the database; no cut-off is given here.

Legend:
[1] = Cytotoxicity against HDFa cells assessed as cell viability at 128 ug/mL measured after 20 hrs by XTT assay relative to control; assay type: toxicity, cell-based; conditions: human, at 128 µg/mL, read-out: Activity
[2] = biological target: Ubiquitin carboxyl-terminal hydrolase 7 (Homo sapiens) (UniProt Q93009); assay: Inhibition of human USP7 at 35 uM relative to control
[3] = biological target: T1, Deubiquitinase and deneddylase Dub1 (Chlamydia trachomatis serovar L2 (strain ATCC VR-902B / DSM 19102 /434/Bu), UniProt B0B9A0); assay: Inhibition of recombinant Chlamydia trachomatis DUB1 (130 to 401 residues) using Ub-Rh110Gly as fluorogenic substrate incubated for 60 mins by enzymatic analysis; conditions: read-out: IC50
T1 sequence (B0B9A0 whole entry): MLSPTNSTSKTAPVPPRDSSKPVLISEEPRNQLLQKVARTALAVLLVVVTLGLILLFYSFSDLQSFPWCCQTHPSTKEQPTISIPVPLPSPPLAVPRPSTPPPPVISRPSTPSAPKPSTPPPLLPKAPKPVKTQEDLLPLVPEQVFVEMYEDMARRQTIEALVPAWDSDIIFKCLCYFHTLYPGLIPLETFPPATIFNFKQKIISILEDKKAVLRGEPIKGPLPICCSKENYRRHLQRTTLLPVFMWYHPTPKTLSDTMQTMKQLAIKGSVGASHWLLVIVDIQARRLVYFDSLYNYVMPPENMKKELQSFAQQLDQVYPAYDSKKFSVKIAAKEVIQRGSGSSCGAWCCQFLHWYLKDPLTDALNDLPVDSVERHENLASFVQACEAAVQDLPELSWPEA

[4] = biological target: T2, Ubiquitin carboxyl-terminal hydrolase 25 (Homo sapiens) (UniProt Q9UHP3); assay: Inhibition of human USP25 at 35 uM relative to control
T2 sequence (whole entry): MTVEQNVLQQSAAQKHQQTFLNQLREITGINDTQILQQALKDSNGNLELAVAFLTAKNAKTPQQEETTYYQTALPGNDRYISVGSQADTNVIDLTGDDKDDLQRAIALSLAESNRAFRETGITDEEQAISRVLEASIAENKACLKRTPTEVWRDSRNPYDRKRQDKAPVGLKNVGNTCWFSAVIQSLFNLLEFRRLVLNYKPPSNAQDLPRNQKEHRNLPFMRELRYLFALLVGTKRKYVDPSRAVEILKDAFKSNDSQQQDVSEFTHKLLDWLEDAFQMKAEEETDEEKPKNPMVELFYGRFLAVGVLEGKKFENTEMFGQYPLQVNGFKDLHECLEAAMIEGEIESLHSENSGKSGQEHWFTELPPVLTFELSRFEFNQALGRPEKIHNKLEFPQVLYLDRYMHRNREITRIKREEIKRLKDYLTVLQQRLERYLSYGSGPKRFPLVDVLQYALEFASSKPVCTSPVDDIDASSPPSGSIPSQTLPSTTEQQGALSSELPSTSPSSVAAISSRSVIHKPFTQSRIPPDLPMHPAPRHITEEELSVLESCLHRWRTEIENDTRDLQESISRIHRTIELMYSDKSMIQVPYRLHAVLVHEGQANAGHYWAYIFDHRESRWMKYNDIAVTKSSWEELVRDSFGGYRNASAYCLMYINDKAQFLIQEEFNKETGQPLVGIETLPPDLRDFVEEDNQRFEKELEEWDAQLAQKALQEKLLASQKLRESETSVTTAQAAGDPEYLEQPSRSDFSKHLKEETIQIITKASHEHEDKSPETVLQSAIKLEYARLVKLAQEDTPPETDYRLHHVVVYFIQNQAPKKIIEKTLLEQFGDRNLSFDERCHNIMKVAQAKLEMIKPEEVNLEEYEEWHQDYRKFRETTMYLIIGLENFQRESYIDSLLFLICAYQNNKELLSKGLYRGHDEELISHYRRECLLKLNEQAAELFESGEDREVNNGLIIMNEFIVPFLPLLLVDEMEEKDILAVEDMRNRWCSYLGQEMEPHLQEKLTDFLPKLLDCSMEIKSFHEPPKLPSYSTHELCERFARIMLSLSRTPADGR

[5] = biological target: T3, OTU domain-containing protein 3 (Homo sapiens) (UniProt Q5T2D3); assay: Inhibition of human OTUD3 at 35 uM relative to control
T3 sequence (whole entry): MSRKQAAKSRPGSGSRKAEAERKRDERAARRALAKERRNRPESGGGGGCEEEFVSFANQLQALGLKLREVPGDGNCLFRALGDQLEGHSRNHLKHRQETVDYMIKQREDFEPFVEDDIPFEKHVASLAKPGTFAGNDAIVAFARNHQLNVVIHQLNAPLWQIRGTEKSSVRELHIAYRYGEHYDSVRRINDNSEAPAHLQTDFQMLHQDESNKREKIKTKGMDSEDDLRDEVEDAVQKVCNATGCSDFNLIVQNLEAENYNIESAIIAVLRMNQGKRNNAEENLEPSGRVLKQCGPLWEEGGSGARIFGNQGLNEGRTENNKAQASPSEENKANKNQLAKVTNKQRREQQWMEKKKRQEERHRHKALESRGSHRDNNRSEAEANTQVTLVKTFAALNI

Escherichia coli = assay: Antimicrobial activity against Escherichia coli K12 upto 256 microg/ml incubated for 20 hrs by resazurin staining based microtiter plate reader analysis; assay type: functional, organism-based; conditions: dose <= 256.0 µg/ml
[6] = biological target: T4, Deubiquitinase and deneddylase Dub2 (Chlamydia trachomatis) (UniProt O84875); assay: Mixed type inhibition of Chlamydia trachomatis DUB2 incubated for 60 mins
T4 sequence (whole entry): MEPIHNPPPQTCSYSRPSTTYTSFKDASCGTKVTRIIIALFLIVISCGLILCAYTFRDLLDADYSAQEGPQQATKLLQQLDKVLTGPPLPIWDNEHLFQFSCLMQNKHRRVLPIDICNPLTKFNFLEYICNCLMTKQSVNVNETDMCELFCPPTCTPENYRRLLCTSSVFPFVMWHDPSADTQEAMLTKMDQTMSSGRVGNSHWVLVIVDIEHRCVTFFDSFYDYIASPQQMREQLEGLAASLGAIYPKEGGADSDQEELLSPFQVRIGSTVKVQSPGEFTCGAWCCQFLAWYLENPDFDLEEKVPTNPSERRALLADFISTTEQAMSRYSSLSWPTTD

[7] = biological target: T5, Deubiquitinase and deneddylase Dub1 (Chlamydia trachomatis serovar L2 (strain ATCC VR-902B / DSM 19102 /434/Bu)) (UniProt B0B9A0); assay: Inhibition of recombinant Chlamydia trachomatis DUB1 (130 to 401 residues) using Ub-Rh110Gly as fluorogenic substrate at highest concentration incubated for 60 to 360 mins by enzymatic analysis; conditions: time 60-360 min
T5 sequence (whole entry): T1 sequence (B0B9A0 whole entry)

HEp-2 = assay: Cytotoxicity against human HEp-2 cells assessed as reduction in cell viability at 4 to 256 ug/mL measured after 20 hrs by XTT assay; assay type: toxicity, cell-based; conditions: hep-2, 20 h, dose 4-256 µg/ml

Sequence of Ubiquitin carboxyl-terminal hydrolase 7 (Homo sapiens) (Q93009 whole entry, looked up, the tested form may be a part): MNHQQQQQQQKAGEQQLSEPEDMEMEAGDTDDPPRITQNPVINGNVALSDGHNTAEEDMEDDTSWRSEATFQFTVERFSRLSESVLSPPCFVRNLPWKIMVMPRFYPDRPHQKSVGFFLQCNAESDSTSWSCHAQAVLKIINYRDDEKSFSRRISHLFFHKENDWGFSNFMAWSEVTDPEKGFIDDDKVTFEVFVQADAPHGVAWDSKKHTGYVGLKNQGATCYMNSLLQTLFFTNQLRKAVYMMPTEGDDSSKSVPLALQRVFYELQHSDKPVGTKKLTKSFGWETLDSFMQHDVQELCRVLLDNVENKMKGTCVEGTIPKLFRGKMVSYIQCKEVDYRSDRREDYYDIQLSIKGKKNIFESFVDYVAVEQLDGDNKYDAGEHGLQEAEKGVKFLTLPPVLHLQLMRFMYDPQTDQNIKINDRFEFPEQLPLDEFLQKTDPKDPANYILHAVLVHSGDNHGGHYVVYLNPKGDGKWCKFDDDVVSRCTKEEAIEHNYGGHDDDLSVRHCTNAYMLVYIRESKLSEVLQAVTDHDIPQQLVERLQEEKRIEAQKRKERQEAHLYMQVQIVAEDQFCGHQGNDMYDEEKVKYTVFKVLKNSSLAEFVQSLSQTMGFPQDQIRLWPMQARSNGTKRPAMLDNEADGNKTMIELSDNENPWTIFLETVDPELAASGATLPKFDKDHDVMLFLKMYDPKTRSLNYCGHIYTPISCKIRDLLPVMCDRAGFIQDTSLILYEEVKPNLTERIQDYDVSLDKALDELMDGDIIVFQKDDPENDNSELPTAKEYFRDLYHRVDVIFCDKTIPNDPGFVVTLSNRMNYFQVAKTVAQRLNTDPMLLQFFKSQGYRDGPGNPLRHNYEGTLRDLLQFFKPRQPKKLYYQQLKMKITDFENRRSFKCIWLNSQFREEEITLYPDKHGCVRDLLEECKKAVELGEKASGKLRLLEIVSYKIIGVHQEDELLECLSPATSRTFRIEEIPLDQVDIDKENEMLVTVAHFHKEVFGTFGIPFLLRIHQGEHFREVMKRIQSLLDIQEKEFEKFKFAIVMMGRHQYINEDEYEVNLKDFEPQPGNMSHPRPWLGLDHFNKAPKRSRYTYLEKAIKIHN

Question: For `N#Cc1nccc(C(=O)NCc2nn(C(=O)Cc3ccccc3)c3ccccc23)n1`, which viability at 20 h, 128 ug/mL [1] is on record?
Answer: 67%

Question: And the inhibition [2]?
Answer: < 25%

Question: What about the IC50 [3] of the same compound?
Answer: 970 nM

Question: And the inhibition [4]?
Answer: < 25%

Question: What about the inhibition [5] of the same compound?
Answer: < 25%

Question: What about the Activity (Escherichia coli) of the same compound?
Answer: inactive

Question: And the inhibition [6]?
Answer: Active

Question: What about the inhibition [7] of the same compound?
Answer: Active; Complete Inhibition Not Observed

Question: What about the Activity (HEp-2) of the same compound?
Answer: Non-toxic
